One molecule from patent US20210113563A1, “4-(4-CYANO-2-THIOARYL)DIHYDROPYRIMIDINONES FOR TREATING CHRONIC WOUNDS” (pH Pharma Co., Ltd., priority 2015, published 2021) can be followed below.

The subject of this test is myeloperoxidase (MPO). The test can be described thus: Myeloperoxidase (MPO) activity in wound tissue of diabetic mice (db/db). Type of test: in vivo. Conditions: db/db mouse. The method, then: MPO determination is based on the oxidation of H2O2 by a peroxidase in the presence of TMB (3,3′5,5′-Tetramethylbenzidin). The results were quantified with a human MPO standard curve prepared in homogenate buffer, which also serves as a blank. Samples were diluted fifteen fold in homogenate buffer. Of each sample, standard and blank 20 μL were dispensed in a clear flat bottom MWP at RT. Following that 100 μL of fresh 0.2 mM TMB in AC-POX buffer are added and the reaction was started by adding 12.5 μL of 1 mM H2O2 in AC-POX buffer. After 5-10 min 22.5 μL of 1 N H2SO4 was added to stop the reaction and plates were vortexed briefly to evenly distribute the newly developed yellow color. […] Absorption was measured at k=450 nm and the amount of MPO in samples was calculated from standard curve in SoftmaxPro 6.4 after subtracting the blank.
To assess neutrophil activity in wound tissue samples, myeloperoxidase activity was measured.

For the molecule `CC1=C(C#N)[C@@H](c2ccc(C#N)cc2S(C)(=O)=O)N(C)C(=O)N1c1cccc(C(F)(F)F)c1` [Example 5, (4 S)-4-[4-Cyano-2-(methylsulfonyl)phenyl]-3,6-dimethyl-2-oxo-1-[3-(trifluoromethyl)phenyl]-1,2,3,4-tetrahydropyrimidine-5-carbonitrile], the “Neutrophil dependent inflammatory activity in wound tissue (MPO activity)” value is recorded as 0.00361 Peroxidase Activity/μg Protein (0.03 mg/kg BW o.d.); 0.00029 Peroxidase Activity/μg Protein (0.1 mg/kg BW o.d.); 0.00043 Peroxidase Activity/μg Protein (0.3 mg/kg BW o.d.); 0.00043 Peroxidase Activity/μg Protein (1.0 mg/kg BW o.d.); 0.00027 Peroxidase Activity/μg Protein (3.0 mg/kg BW o.d.); 0.00016 Peroxidase Activity/μg Protein (10.0 mg/kg BW o.d.). The “Inhibition of MPO activity in wound tissue (in words)” value (from 0.1 mg/kg) was “potently and effectively inhibited MPO activity in wound tissue”.
